Source: patent US11634396B2 (priority 2021, dated 2023)
Where a name gives a salt, the structure may show the parent alone. Read-outs that look alike come from different tables or passages of the source.

Molecular target: human mOR (Homo sapiens (Human), UniProt P35372)
Experiment: cell-based
Protocol: CHO Tag-lite human mOR stable cell line from Cisbio (NCBI accession number: NM_000914.3, Bedford, Mass.) were seeded and grown to approximately 80% confluence in Ham F-12 with 10% FBS, 50 U/ml penicillin, 50 μg/ml streptomycin, 2 mM Hepes, and 1 mg/ml geneticin (Invitrogen, Carlsbad, Calif.). Cells were then harvested using accutase (Corning. Coming, N.Y.), centrifuged at 1300 RPM for 5 min, and plated at 5000 cells per 5 μL per well in a 5× dilution of stimulation buffer consisting of the HTRF cAMP Gi kit, water and IBMX at 0.5 mM (Cisbio, Bedford, Mass.) in white HTRF low volume 384 well plates (Cisbio, Bedford, Mass.). Plates were then incubated at 37° C. in 5% CO2 for 10 minutes. For the agonist assay, forskolin was added to a final concentration of 4 μM. […] Test compounds were dissolved in DMSO and water, and then serially diluted to working concentrations such that the concentration of DMSO was less than 0.1%. Diluted test compounds were added at 2.5 μL per well, and plates were incubated at 37° C., and 5% CO2 for 15 minutes, and then at room temperature for 15 minutes. Next 5 μl/well of cAMP Eu-cryptate and 5 μl/well of anti-cAMP-d2 (both diluted 1:20 in lysis buffer) were added, and plates were incubated at room temperature for 1 hour. Following incubation, plates were read in a Synergy Neo2 multi-mode reader (Biotek, Winooski, Vt.). […] For the agonist assay, data was normalized using the maximal DAMGO response. Measurements were performed in triplicate and the dose response was fit using nonlinear regression.

[1] = CHO Tag-lite human mOR stable cell line, forskolin 4 μM and DAMGO at EC90, read-out: mOR cAMP Antagonist Assay IC50

human mOR, sequence (P35372 whole entry): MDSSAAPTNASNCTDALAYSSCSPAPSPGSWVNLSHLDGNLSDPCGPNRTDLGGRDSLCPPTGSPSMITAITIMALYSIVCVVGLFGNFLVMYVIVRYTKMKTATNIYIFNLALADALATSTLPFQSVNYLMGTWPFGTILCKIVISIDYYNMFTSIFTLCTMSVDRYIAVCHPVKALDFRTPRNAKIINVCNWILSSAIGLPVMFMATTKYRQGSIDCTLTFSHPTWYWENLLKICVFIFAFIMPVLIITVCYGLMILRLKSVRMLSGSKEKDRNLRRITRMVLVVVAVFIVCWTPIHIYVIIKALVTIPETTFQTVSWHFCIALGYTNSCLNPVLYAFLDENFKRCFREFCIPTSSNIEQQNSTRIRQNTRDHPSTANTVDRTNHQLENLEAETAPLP

SMILES	IC50 [1]	IC50
Cc1ncc([C@@H](CC(=O)NC[C@H](Cc2ccc(O)cc2)N(C)C)C2CC2)cn1 [Compound 311, (S)-3-cyclopropyl-N-((S)-2-(dimethylamino)-3-(4-hydroxyphenyl)propyl)-3-(2-methylpyrimidin-5-yl)propanamide]	300 to 3000 nM	
N[C@H](CNC(=O)C[C@H](c1cccnc1)C1(C(F)(F)F)CC1)Cc1ccc2[nH]ncc2c1 [Compound 201, (R)-N-((S)-2-amino-3-(1H-indazol-5-yl)propyl)-3-(pyridin-3-yl)-3-(1-(trifluoromethyl)cyclopropyl)propenamide dihydrochloride salt]	> 3000 nM	
CN(C)[C@H](CNC(=O)C[C@H](c1cccnc1)C1(C)CC1)Cc1ccc2[nH]ncc2c1 [Compound 204, (S)-N-((S)-2-(dimethylamino)-3-(1H-indazol-5-yl)propyl)-3-(1-methylcyclopropyl)-3-(pyridin-3-yl)propanamide]		< 300 nM
CC(C)[C@H](CC(=O)NC[C@H](Cc1ccc(O)cc1)N(C)C)c1cccnc1 [Compound 304, (S)-N-((S)-2-(dimethylamino)-3-(4-hydroxyphenyl)propyl)-4-methyl-3-(pyridin-3-yl)pentanamide]		< 300 nM
CN(C)[C@H](CNC(=O)C[C@@H](c1ncc(Cl)cn1)C1(C(F)(F)F)CC1)Cc1cc(F)c(C(N)=O)cc1F [Compound 5, 4-[(2S)-3-[(3R)-3-(5-chloropyrimidin-2-yl)-3-[1-(trifluoromethyl)cyclopropyl]propanamido]-2-(dimethylamino)propyl]-2,5-difluorobenzamide]		300 to 3000 nM
CNC(=O)c1ccc(C[C@@H](CNC(=O)C[C@H](c2cnc(C)nc2)C2(C(F)(F)F)CC2)N(C)C)cc1F [Compound 152, 4-((S)-2-(dimethylamino)-3-((R)-3-(2-methylpyrimidin-5-yl)-3-(1-(trifluoromethyl)cyclopropyl)propanamido)propyl)-2-fluoro-N-methylbenzamide]		> 3000 nM
CN(C)c1ncc(C(CC(=O)NC[C@H](Cc2ccc(C(N)=O)cc2Cl)N(C)C)C2(C(F)(F)F)CC2)cn1 (stereo partly drawn) [Compound 29, 3-chloro-4-[(2S)-2-(dimethylamino)-3-{3-[2-(dimethylamino)pyrimidin-5-yl]-3-[1-(trifluoromethyl)cyclopropyl]propanamido}propyl]benzamide]		< 300 nM
CN(C)[C@H](CNC(=O)C[C@H](c1ccncc1)C1(C(F)(F)F)CC1)Cc1ccc2[nH]ncc2c1 [Compound 209]		< 300 nM
CN(C)[C@H](CNC(=O)CC(c1cccnc1)C1(C(F)(F)F)CC1)Cc1cc(F)c(C(N)=O)c(F)c1 (stereo partly drawn) [Compound 50, 4-[(2S)-2-(dimethylamino)-3-[3-(pyridin-3-yl)-3-[1-(trifluoromethyl)cyclopropyl]propanamido]propyl]-2,6-difluorobenzamide]		> 3000 nM
CN(C)[C@H](CNC(=O)C[C@H](c1cccnc1)C1(C(F)(F)F)CC1)Cc1ccc(O)cc1 [Compound 306, (R)-N-((S)-2-(dimethylamino)-3-(4-hydroxyphenyl)propyl)-3-(pyridin-3-yl)-3-(1-(trifluoromethyl)cyclopropyl)propanamide]		< 300 nM
CN[C@H](CNC(=O)C[C@@H](c1ccccc1)C1(C(F)(F)F)CC1)Cc1ccc(C(N)=O)cc1 [Compound 82, 4-((S)-2-(methylamino)-3-((S)-3-phenyl-3-(1-(trifluoromethyl)cyclopropyl)propanamido)propyl)benzamide]		> 3000 nM
Cc1c(C[C@@H](CNC(=O)C[C@H](c2ccncc2)C2(C(F)(F)F)CC2)N(C)C)ccc2[nH]ncc12 [Compound 196, (R)-N-((S)-2-(dimethylamino)-3-(4-methyl-1H-indazol-5-yl)propyl)-3-(pyridin-4-yl)-3-(1-(trifluoromethyl)cyclopropyl)propanamide]		< 300 nM
CN(C)[C@H](CNC(=O)C[C@H](c1cncs1)C1(C(F)(F)F)CC1)Cc1ccc(C(N)=O)c(F)c1 [Compound 55, 4-((S)-2-(dimethylamino)-3-((S)-3-(thiazol-5-yl)-3-(1-(trifluoromethyl)cyclopropyl)propanamido)propyl)-2-fluorobenzamide]		< 300 nM
CN(C)[C@H](CNC(=O)C[C@H](c1cccnc1)C1CC1)Cc1ccc2[nH]ncc2c1 [Compound 207, (S)-3-cyclopropyl-N-((S)-2-(dimethylamino)-3-(1H-indazol-5-yl)propyl)-3-(pyridin-3-yl)propanamide]	> 3000 nM	
Cc1ncc([C@@H](CC(=O)NC[C@H](Cc2ccc(C(N)=O)c(F)c2C)N(C)C)C2(C(F)(F)F)CC2)s1 [Compound 43, 4-((S)-2-(dimethylamino)-3-((S)-3-(2-methylthiazol-5-yl)-3-(1-(trifluoromethyl)cyclopropyl)propanamido)propyl)-2-fluoro-3-methylbenzamide]		< 300 nM
Cc1cc(O)ccc1C[C@@H](CNC(=O)CC(c1cccnc1)C1(C(F)(F)F)CC1)N(C)C (stereo partly drawn) [Compound 272, N-((S)-2-(dimethylamino)-3-(4-hydroxy-2-methylphenyl)propyl)-3-(pyridin-3-yl)-3-(1-(trifluoromethyl)cyclopropyl)propanamide]		< 300 nM
CNC(=O)c1ccc(C[C@@H](CNC(=O)CC(c2ccncc2)C2(C(F)(F)F)CC2)N(C)C)c(C)c1 (stereo partly drawn) [Compound 134, 4-((2S)-2-(dimethylamino)-3-(3-(pyridin-4-yl)-3-(1-(trifluoromethyl)cyclopropyl)propanamido)propyl)-N,3-dimethylbenzamide]		< 300 nM
Cc1ncc([C@@H](CC(=O)NC[C@H](Cc2ccc3[nH]c(=O)oc3c2C)N(C)C)C2(C(F)(F)F)CC2)cn1 [Compound 169, (R)-N-((S)-2-(dimethylamino)-3-(7-methyl-2-oxo-2,3-dihydrobenzo[d]oxazol-6-yl)propyl)-3-(2-methylpyrimidin-5-yl)-3-(1-(trifluoromethyl)cyclopropyl)propanamide]		> 3000 nM
Cc1cc(O)cc(C)c1C[C@@H](CNC(=O)CC(c1ccc(C(F)(F)F)nc1)C1(C(F)(F)F)CC1)N(C)C (stereo partly drawn) [Compound 249, N-((S)-2-(dimethylamino)-3-(4-hydroxy-2,6-dimethylphenyl)propyl)-3-(1-(trifluoromethyl)cyclopropyl)-3-(6-(trifluoromethyl)pyridin-3-yl)propanamide]		< 300 nM
Cc1cc([C@@H](CC(=O)NC[C@H](Cc2ccc(O)cc2)N(C)C)C2(C(F)(F)F)CC2)ccn1 [Compound 299, (R)-N-((S)-2-(dimethylamino)-3-(4-hydroxyphenyl)propyl)-3-(2-methylpyridin-4-yl)-3-(1-(trifluoromethyl)cyclopropyl) propanamide]		< 300 nM
CN(C)[C@H](CNC(=O)C[C@H](c1ccsc1)C1(C(F)(F)F)CC1)Cc1ccc(C(N)=O)c(F)c1 [Compound 54, 4-((S)-2-(dimethylamino)-3-((S)-3-(thiophen-3-yl)-3-(1-(trifluoromethyl)cyclopropyl)propanamido)propyl)-2-fluorobenzamide]		> 3000 nM
CNC(=O)c1ccc(C[C@@H](CNC(=O)CC(c2ccncc2)C2(C(F)(F)F)CC2)N(C)C)c(C)c1 (stereo in doubt) [Compound 130, 4-((S)-2-(dimethylamino)-3-((S)-3-(pyridin-4-yl)-3-(1-(trifluoromethyl)cyclopropyl)propanamido)propyl)-N,3-dimethylbenzamide]		< 300 nM
CN(C)[C@H](CNC(=O)C[C@H](c1cccnc1)C1(C)CC1)Cc1ccc(O)cc1 [Compound 303, (S)-N-((S)-2-(dimethylamino)-3-(4-hydroxyphenyl)propyl)-3-(1-methylcyclopropyl)-3-(pyridin-3-yl)propanamide]		< 300 nM
CN(C)[C@H](CNC(=O)CC(c1ccncc1)C1(C(F)(F)F)CC1)Cc1ccc(C(N)=O)cc1Cl (stereo partly drawn) [Compound 26, 3-chloro-4-[(2S)-2-(dimethylamino)-3-[3-(pyridin-4-yl)-3-[1-(trifluoromethyl)cyclopropyl]propanamido]propyl]benzamide]		< 300 nM
CN(C)[C@H](CNC(=O)CC(c1ccncc1)C1(C(F)(F)F)CC1)Cc1ccc(C(N)=O)c(F)c1 (stereo partly drawn) [Compound 70, 4-[(2S)-2-(dimethylamino)-3-[3-(pyridin-4-yl)-3-[1-(trifluoromethyl)cyclopropyl]propanamido]propyl]-2-fluorobenzamide]	> 3000 nM	
Cc1cnc([C@@H](CC(=O)NC[C@H](Cc2ccc(C(N)=O)c(F)c2)N(C)C)C2(C(F)(F)F)CC2)nc1 [Compound 57, 4-((S)-2-(dimethylamino)-3-((S)-3-(5-methylpyrimidin-2-yl)-3-(1-(trifluoromethyl)cyclopropyl)propanamido)propyl)-2-fluorobenzamide]		300 to 3000 nM
CN(C)[C@H](CNC(=O)C[C@H](c1cccnc1)C1(C(F)(F)F)CC1)Cc1cc(F)c(O)cc1F [Compound 238, (R)-N-((S)-3-(2,5-difluoro-4-hydroxyphenyl)-2-(dimethylamino)propyl)-3-(pyridin-3-yl)-3-(1-(trifluoromethyl)cyclopropyl)propanamide]		< 300 nM
